# Measured values published in patent US6737383B1, “Herbicidal oxadiazolidines” (priority 1999, dated 2004).
# Experiments:
# bedstraw = test: Test B pre/postemergence bedstraw; format: in vivo, Galium aparine; settings: Preemergence
# Procedure, shortened: (§1)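 Response is a visual 0-to-10 score relative to untreated plants, where 0 means no effect and 10 means complete control, taken twelve to sixteen days after application. Treatments went onto soil at planting and onto foliage of 1- to 4-leaf plants, using a surfactant-containing non-phytotoxic solvent.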
# rice = test: Test B flood test rice; format: in vivo, Oryza sativa
# Procedure, shortened: (§2)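 Flood test on plants grown to the 2-leaf stage; treated plants kept in greenhouse twelve to sixteen days, then visually rated against controls on a 0 (no effect) to 10 (complete control) scale.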
# duck salad = test: Test B flood test duck salad; format: in vivo, Heteranthera limosa
# Procedure, shortened: as §2
# purple nutsedge = test: Test B pre/postemergence purple nutsedge; format: in vivo, Cyperus rotundus
# Procedure, shortened: as §1
# morningglory = test: Test B pre/postemergence morningglory; format: in vivo, Ipomoea hederacea
# Procedure, shortened: as §1
# cocklebur = test: Test B pre/postemergence cocklebur; format: in vivo, Xanthium strumarium
# Procedure, shortened: as §1
# sugar beet = test: Test B pre/postemergence sugar beet; format: in vivo, Beta vulgaris
# Procedure, shortened: as §1
# rape = test: Test B pre/postemergence rape; format: in vivo, Brassica napus
# Procedure, shortened: as §1
# wild oat = test: Test B pre/postemergence wild oat; format: in vivo, Avena fatua
# Procedure, shortened: as §1
# surinam grass = test: Test B pre/postemergence surinam grass; format: in vivo, Brachiaria decumbens
# Procedure, shortened: as §1
# pigweed = test: Test B pre/postemergence pigweed; format: in vivo, Amaranthus retroflexus
# Procedure, shortened: as §1
# giant foxtail = test: Test B pre/postemergence giant foxtail; format: in vivo, Setaria faberii
# Procedure, shortened: as §1
# smallflower flatsedge = test: Test B flood test smallflower flatsedge; format: in vivo, Cyperus difformis
# Procedure, shortened: as §2
# crabgrass = test: Test B pre/postemergence crabgrass; format: in vivo, Digitaria sanguinalis
# Procedure, shortened: as §1
# bamyardgrass = test: Test B flood test barnyardgrass; format: in vivo, Echinochloa crus-galli
# Procedure, shortened: as §2
# soybean = test: Test B pre/postemergence soybean; format: in vivo, Glycine max
# Procedure, shortened: as §1
# velvetleaf = test: Test B pre/postemergence velvetleaf; format: in vivo, Abutilon theophrasti
# Procedure, shortened: as §1
# corn = test: Test B pre/postemergence corn; format: in vivo, Zea mays
# Procedure, shortened: as §1
# blackgrass = test: Test B pre/postemergence blackgrass; format: in vivo, Alopecurus myosuroides
# Procedure, shortened: as §1
# wheat = test: Test B pre/postemergence wheat; format: in vivo, Triticum aestivum
# Procedure, shortened: as §1
# [1] = Rate 62 g/ha, flood test species, Pre-emergence, visual evaluation after twelve to sixteen days
# [2] = Rate 125 g/ha, under heading Pre-emergence, flood test species, visual evaluation after twelve to sixteen days
# [3] = Rate 250 g/ha, Pre-emergence (flood test species), scale 0 to 10, 0 is no effect, 10 is complete control
# [4] = Rate 500 g/ha, Pre-emergence section of Table B, 0 to 10 scale (0 no effect, 10 complete control)
# [5] = Postemergence, Rate 62 g/ha, scale 0 to 10, 0 is no effect, 10 is complete control
# [6] = Postemergence, Rate 125 g/ha, scale of 0 to 10 where 0 is no effect and 10 is complete control
# [7] = Postemergence, Rate 250 g/ha, scale of 0 to 10, 0 is no effect, 10 is complete control
# [8] = Postemergence, Rate 500 g/ha, scale of 0 to 10 where 0 is no effect and 10 is complete control
# [9] = Preemergence, Rate 62 g/ha, scale 0 to 10 (0 no effect, 10 complete control)
# [10] = Preemergence, Rate 125 g/ha, scale of 0 to 10 where 0 is no effect and 10 is complete control
# [11] = Preemergence, Rate 500 g/ha, scale of 0 to 10 where 0 is no effect and 10 is complete control
smiles,measurement,setting,value
CC(C)N(C(=O)n1oc(=O)n(CC(C)[N+](=O)[O-])c1=O)c1ccccc1 (stereo not drawn) [Compound 604],Bedstraw plant response rating (0 to 10 scale),bedstraw; Rate 250 g/ha,0
same,Bedstraw plant response rating,"bedstraw; Rate 500 g/ha, scale of 0 to 10 where 0 is no effect and 10 is complete control",0
same,"Plant response rating, Rice (0 to 10 scale, 0 is no effect, 10 is complete control)",rice; [1],0
same,"Rice plant response rating (0 to 10 scale, 0 is no effect, 10 is complete control)",rice; [2],0
same,Rice plant response rating,rice; [3],0
same,Rice plant response rating,rice; [4],0
same,"Plant response rating, Ducksalad (0 to 10 scale, 0 is no effect, 10 is complete control)",duck salad; [1],0
same,"Ducksalad plant response rating (0 to 10 scale, 0 is no effect, 10 is complete control)",duck salad; [2],0
same,Ducksalad plant response rating,duck salad; [3],0
same,Ducksalad plant response rating,duck salad; [4],0
same,"Plant response rating, Nutsedge",purple nutsedge; [5],0
same,"Plant response rating, Nutsedge",purple nutsedge; [6],0
same,Nutsedge plant response rating,purple nutsedge; [7],0
same,"Plant response rating, Nutsedge",purple nutsedge; [8],0
same,Nutsedge plant response rating,purple nutsedge; [9],0
same,Nutsedge plant response rating,purple nutsedge; [10],0
same,"Plant response rating, Nutsedge",purple nutsedge; [11],0
same,"Plant response rating, Morningglory",morningglory; [5],0
same,"Plant response rating, Morningglory",morningglory; [6],1
same,Morningglory plant response rating,morningglory; [7],2
same,"Plant response rating, Morningglory",morningglory; [8],2
same,Morningglory plant response rating,morningglory; [9],0
same,Morningglory plant response rating,morningglory; [10],0
same,"Plant response rating, Morningglory",morningglory; [11],0
same,"Plant response rating, Cocklebur",cocklebur; [5],0
same,"Plant response rating, Cocklebur",cocklebur; [6],0
same,Cocklebur plant response rating,cocklebur; [7],0
same,"Plant response rating, Cocklebur",cocklebur; [8],0
same,Cocklebur plant response rating,cocklebur; [9],0
same,Cocklebur plant response rating,cocklebur; [10],0
same,Cocklebur plant response rating (0 to 10 scale),"cocklebur; Preemergence, Rate 250 g/ha",0
same,"Plant response rating, Cocklebur",cocklebur; [11],0
same,"Plant response rating, Sugarbeets",sugar beet; [5],0
same,"Plant response rating, Sugarbeets",sugar beet; [6],0
same,Sugarbeets plant response rating,sugar beet; [7],0
same,"Plant response rating, Sugarbeets",sugar beet; [8],0
same,Sugarbeets plant response rating,sugar beet; [9],0
same,Sugarbeets plant response rating,sugar beet; [10],0
same,"Plant response rating, Sugarbeets",sugar beet; [11],0
same,"Plant response rating, Rape",rape; [5],0
same,"Plant response rating, Rape",rape; [6],0
same,Rape plant response rating,rape; [7],0
same,"Plant response rating, Rape",rape; [8],0
same,Rape plant response rating,rape; [9],0
same,Rape plant response rating,rape; [10],0
same,"Plant response rating, Rape",rape; [11],0
same,"Plant response rating, Wild oats",wild oat; [5],0
same,"Plant response rating, Wild oats",wild oat; [6],0
same,Wild oats plant response rating,wild oat; [7],0
same,"Plant response rating, Wild oats",wild oat; [8],0
same,Wild oats plant response rating,wild oat; [9],0
same,Wild oats plant response rating,wild oat; [10],0
same,"Plant response rating, Wild oats",wild oat; [11],0
same,"Plant response rating, B. signalgrass",surinam grass; [5],0
same,"Plant response rating, B. signalgrass",surinam grass; [6],0
same,B. signalgrass plant response rating,surinam grass; [7],0
same,"Plant response rating, B. signalgrass",surinam grass; [8],0
same,B. signalgrass plant response rating,surinam grass; [9],0
same,B. signalgrass plant response rating,surinam grass; [10],0
same,"B. signalgrass plant response rating (0 to 10 scale, 0 is no effect, 10 is complete control)","surinam grass; Preemergence, Rate 250 g/ha",0
same,B. signalgrass plant response rating,surinam grass; [11],0
same,"Plant response rating, Redroot pigweed",pigweed; [5],0
same,"Plant response rating, Redroot pigweed",pigweed; [6],0
same,Redroot pigweed plant response rating,pigweed; [7],0
same,"Plant response rating, Redroot pigweed",pigweed; [8],0
same,Redroot pigweed plant response rating,pigweed; [9],0
same,Redroot pigweed plant response rating,pigweed; [10],0
same,"Plant response rating, Redroot pigweed",pigweed; [11],0
same,"Plant response rating, Giant foxtail",giant foxtail; [5],1
same,"Plant response rating, Giant foxtail",giant foxtail; [6],2
same,Giant foxtail plant response rating,giant foxtail; [7],3
same,"Plant response rating, Giant foxtail",giant foxtail; [8],4
same,Giant foxtail plant response rating,giant foxtail; [9],0
same,Giant foxtail plant response rating,giant foxtail; [10],2
same,"Plant response rating, Giant foxtail",giant foxtail; [11],7
same,"Plant response rating, S. Flatsedge (0 to 10 scale, 0 is no effect, 10 is complete control)",smallflower flatsedge; [1],0
same,"S. Flatsedge plant response rating (0 to 10 scale, 0 is no effect, 10 is complete control)",smallflower flatsedge; [2],0
same,S. Flatsedge plant response rating,smallflower flatsedge; [3],0
same,S. Flatsedge plant response rating,smallflower flatsedge; [4],0
same,"Plant response rating, Crabgrass",crabgrass; [5],1
same,Crabgrass plant response rating,crabgrass; [7],3
same,"Plant response rating, Crabgrass",crabgrass; [8],3
same,Crabgrass plant response rating,crabgrass; [9],0
same,Crabgrass plant response rating,crabgrass; [10],0
same,"Plant response rating, Crabgrass",crabgrass; [11],1
same,"Plant response rating, Barnyardgrass (0 to 10 scale, 0 is no effect, 10 is complete control)",bamyardgrass; [1],0
same,"Barnyardgrass plant response rating (0 to 10 scale, 0 is no effect, 10 is complete control)",bamyardgrass; [2],0
same,Barnyardgrass plant response rating,bamyardgrass; [3],0
same,Barnyardgrass plant response rating,bamyardgrass; [4],0
same,"Plant response rating, Soybean",soybean; [5],0
same,"Plant response rating, Soybean",soybean; [6],1
same,Soybean plant response rating,soybean; [7],1
same,"Plant response rating, Soybean",soybean; [8],1
same,Soybean plant response rating,soybean; [9],0
same,Soybean plant response rating,soybean; [10],0
same,"Plant response rating, Soybean",soybean; [11],0
same,"Plant response rating, Velvetleaf",velvetleaf; [5],0
same,"Plant response rating, Velvetleaf",velvetleaf; [6],0
same,Velvetleaf plant response rating,velvetleaf; [7],0
same,"Plant response rating, Velvetleaf",velvetleaf; [8],0
same,Velvetleaf plant response rating,velvetleaf; [9],0
same,Velvetleaf plant response rating,velvetleaf; [10],0
same,"Plant response rating, Velvetleaf",velvetleaf; [11],0
same,"Plant response rating, Corn",corn; [5],0
same,"Plant response rating, Corn",corn; [6],0
same,Corn plant response rating,corn; [7],0
same,"Plant response rating, Corn",corn; [8],0
same,Corn plant response rating,corn; [9],0
same,Corn plant response rating,corn; [10],0
same,Corn plant response rating (0 to 10 scale),"corn; Preemergence, Rate 250 g/ha",0
same,"Plant response rating, Corn",corn; [11],0
same,"Plant response rating, Blackgrass",blackgrass; [5],0
same,"Plant response rating, Blackgrass",blackgrass; [6],0
same,Blackgrass plant response rating,blackgrass; [7],0
same,"Plant response rating, Blackgrass",blackgrass; [8],0
same,Blackgrass plant response rating,blackgrass; [9],0
same,Blackgrass plant response rating,blackgrass; [10],0
same,Blackgrass plant response rating (0 to 10 scale),"blackgrass; Preemergence, Rate 250 g/ha",0
same,Blackgrass plant response rating,blackgrass; [11],0
same,"Plant response rating, Wheat",wheat; [5],0
same,"Plant response rating, Wheat",wheat; [6],0
same,Wheat plant response rating,wheat; [7],0
same,"Plant response rating, Wheat",wheat; [8],0
same,Wheat plant response rating,wheat; [9],0
same,Wheat plant response rating,wheat; [10],0
same,"Plant response rating, Wheat",wheat; [11],0
